This note sets out measurements from PMC11240257, “Engineered Methionine Adenosyltransferase Cascades for Metabolic Labeling of Individual DNA Methylomes in Live Cells” (Journal of the American Chemical Society, 2024).

SMILES strings stand for the structures. Like-named read-outs stand apart in the source and are kept apart here.

Assay in all cases: HPLC-MS/MS quantitation of accumulated cofactor, steady state
Common to all, as to type: biochemical
What all share (details): co-substrate ATP

Assay [1] has as its target T1, mouse MAT2A (Mus musculus, UniProt Q3THS6, Q113N/I117A).
T1 construct: recombinant, produced in vitro from bacterial cells; monogenic multimer without MAT2B
The text has this:
(§1) HPLC-MS/MS quantitation of accumulated cofactor, steady state on mouse MAT2A

For assay [2], the target named is T2, mouse MAT2A (Mus musculus, UniProt Q3THS6).
T2 construct: recombinant, produced in vitro from bacterial cells; monogenic multimer without MAT2B
From the text: as §1

Assay [3] has as its target T3, mouse MAT2A (Mus musculus, UniProt Q3THS6, I117A).
T3 construct: recombinant, produced in vitro from bacterial cells; monogenic multimer without MAT2B
From the text: as §1

The target in assay [4] is T4, mouse MAT2A (Mus musculus, UniProt Q3THS6, S114A/I117A).
T4 construct: recombinant, produced in vitro from bacterial cells; monogenic multimer without MAT2B
From the text: as §1

T1 sequence (Q3THS6 whole entry Q113N/I117A): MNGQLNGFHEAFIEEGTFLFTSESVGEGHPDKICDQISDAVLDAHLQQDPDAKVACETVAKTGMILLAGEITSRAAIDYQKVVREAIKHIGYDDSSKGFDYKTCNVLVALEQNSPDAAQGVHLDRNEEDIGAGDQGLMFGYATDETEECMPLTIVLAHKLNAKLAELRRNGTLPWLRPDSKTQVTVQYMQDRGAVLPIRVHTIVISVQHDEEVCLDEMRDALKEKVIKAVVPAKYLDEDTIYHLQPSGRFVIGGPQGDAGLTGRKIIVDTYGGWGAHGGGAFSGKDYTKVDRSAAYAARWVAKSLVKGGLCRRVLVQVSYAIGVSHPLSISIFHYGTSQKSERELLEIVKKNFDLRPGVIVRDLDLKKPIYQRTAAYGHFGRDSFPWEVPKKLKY
T3 sequence (Q3THS6 whole entry I117A): as the sequence (Q3THS6 whole entry Q113N/I117A) above, with N113Q counted along it
T2 sequence (Q3THS6 whole entry): as the sequence (Q3THS6 whole entry Q113N/I117A) above, with N113Q, A117I counted along it
T4 sequence (Q3THS6 whole entry S114A/I117A): as the sequence (Q3THS6 whole entry Q113N/I117A) above, with N113Q, S114A counted along it

`CSCC[C@H](N)C(=O)O` [Met, L-methionine]: the Km on mouse MAT2A [1] (read-out: Km /) amounted to 1.4 ± 0.56 mM; at mouse MAT2A [2] (read-out: Km /), 0.02 ± 0.003 mM; on mouse MAT2A [3] (read-out: Km /), 0.645 ± 0.023 mM; on mouse MAT2A [4] (read-out: Km /), 1.4 ± 0.41 mM.
As to `[N-]=[N+]=NCCCC#CCSCC[C@H](N)C(=O)O` [N3-Met, S-(6-azidohex-2-yn-1-yl)-L-homocysteine], the Km is 1.44 ± 0.27 mM on mouse MAT2A [1] (read-out: Km / mM), 1.03 ± 0.23 mM on mouse MAT2A [2] (read-out: Km / mM), 0.92 ± 0.1 mM on mouse MAT2A [3] (read-out: Km / mM) and 1.52 ± 0.043 mM on mouse MAT2A [4] (read-out: Km / mM).
